Results: patent US12427183B2, “Methods of treating cancer, infectious disease, and autoimmune disease using chemokines” (New York Society for the Relief of the Ruptured and …, priority 2016, dated 2025)
One block for each molecule: values may come before it.

Legend:
[1] = test system: purified pDCs from HDs or SSc patients; test: IFN production by purified pDCs cultured with chemokine alone; assay type: cell-based, human; settings: chemokine 10 μg/ml without CpG, results not shown
Method: (§1) PBMCs were prepared using Ficoll-Paque density gradient from fresh blood under internal Institutional Review Board-approved protocols. pDCs were isolated as previously described (Guiducci et al. 2008) using either using negative depletion (Miltenyi Biotech) or following cell sorting using a BD IFNLUX cell sorter. As part of the gating strategy, neutrophils were excluded by FSC/SSC and cells positive for CD14 (CD3 and CD19 as well) were first excluded in order to prevent the contamination by TLR8 positive cells and then positively gated on HLA-DR, CD123 and BDCA4 to purify the pDCs. All BDCA4+ cells also express BDCA2 (results not shown). As a result, pure pDCs were obtained and no markers for neutrophils (CD66) or myeloid cells were found by PCR. B cells were FACS sorted as CD19+ and monocytes as CD14+ cells. PBMCs were depleted of pDCs using BDCA4 beads from Miltenyi. pDCs were cultured at 10,000-30,000 cells per well in a 96-round bottom plate and incubated at 37° C., 5% CO2 and 95% humidity. After 24 hours of culture, the supernatant was collected for ELISA or Mutiplex cytokine assays. In some culture conditions, cells were cultured with the PI3Kδ inhibitor, CAL-101 (Selleck chemicals) for 24 hours. The RNA-based TLR8 agonist, ORN8-L previously described (Guidacci et al. 2013) was synthetized by Chemgenes Corporation. For the TLR8 activation assay, pDCs were incubated in complete media alone, 200 μg/ml ORN8-L in complete media or 200 μg/ml ORN8-L+ 10 μg/ml CXCL4 (R&D systems).
Supernatant from pDCs 24 hour culture was used for quantification of secreted chemokines and cytokines and measured with the use of an enzyme-linked immunosorbent assay (ELISA) or Luminex multiplex-beads immunoassay. CXCL4 ELISA (Ray Biotech) and IFNα, IP-10, IL-6, TNF Luminex assay (Millipore) was performed according to the manufacturer's protocol. Due to the variability in the number of cells obtained from the different patients and so we could compare the values across donors, all results were normalized to 10,000 cells. Of note, for all donors, pDCs were plated between 10,000-30,000 cells.
When purified pDCs from HDs or SSc patients were cultured with CXCL4 alone ([…]), there was no effect on IFN production.
(§2) 5×10^5 PBMCs or pDC-depleted PBMCs were cultured in 96 wells plate and stimulated with 0.25 μM CpG DNA with or without 10 μg/ml CXCL4, CXCL10, CXCL12 or CCL5. Freshly isolated pDCs were resuspended at 5×10^4 cells/100 μl RPMI 1640 medium (Gibco) and stimulated with the 0.25 μM CpG with/without 10 μg/ml indicated chemokines. The supernatant was harvested after 18 h and IFN-α was measured by ELISA.

[2] = test system: TLR9-mediated activation of pDCs; test: TLR9-mediated activation of purified pDCs (CpG with or without chemokines), IFN-α ELISA; assay type: cell-based, human; settings: for TLR9-induced response (IFN-α secretion) by pDCs / IFNα production from TLR9 in pDCs from HDs: CpG 0.25 μM; for TLR9-induced response (IFN-α secretion) by pDCs: chemokine 10 μg/ml (Example 17); for dependence of IFN-α superinduction on chemokine receptors: with AMG487 100 nM, AMD3100 10 μg/ml, anti-CXCR7 11G8 10 μg/ml, J113863 1.5 μM or Vicriviroc 0.1 μM; for IFNα production from TLR9 in pDCs from HDs: chemokine 10 μg/ml (Example 9)
[3] = test system: PBMCs and pDC-depleted PBMCs; test: IFN-α production in PBMCs and pDC-depleted PBMCs cultured with CpG and chemokines (ELISA); assay type: cell-based, human; settings: CpG 0.25 μM + chemokine 10 μg/ml
Method: PBMCs were prepared using Ficoll-Paque density gradient (GE Healthcare) as previously described (Guiducci et al., 2008).
pDCs were isolated from PBMCs by positive selection using BDCA4-MicroBead Kit as previously described (Guiducci et al., 2008). pDC-depleted PBMC were prepared by removing BDCA4-positive cells from PBMC using microbeads.
as §2
As shown above, CXCL4 can increase IFN-α production by TLR9-activated pDCs. Thus it was tested whether other chemokines may impact TLR9 signaling in pDCs. Purified pDCs were left unstimulated (Unstim.) or cultured with CpG (0.25 μM) alone or with the indicated chemokines at 10 μg/ml. IFN-α secretion was quantified by ELISA. Strikingly, it was observed that a set of chemokines, including CXCL4, CXL10, CXCL12 and CCL5, were able to superinduce TLR9-induced response by pDCs (FIG. 18A), while they had no effect when used alone (results not shown). […] This also raised questions as to the specificity and mechanism for this effect. First, as other DNA sensors have been described to induce IFN-α in immune cells (Barrat et al., 2016), it was tested to see if these chemokines altered the specificity of the CpGs for TLR9 and if the IFN-α response was restricted to pDCs. Total PBMCs or PBMCs where pDCs were depleted (PBMC-ΔpDCs) were incubated with CpGs and either CXCL4, CXCL10, CXCL12 or CCL5 and IFN-α production was quantified by ELISA.

[4] = test system: TLR9-mediated activation of human B cells; test: TLR9-mediated activation of human B cells (CpG with or without chemokines); assay type: cell-based; settings: chemokine 10 μg/ml; for activation of B cells via TLR9 as shown by the production of IL-6: CpG 0.15 μM, ELISA
Method: as §1
IL-6, TNF, and IL-10 gene levels were measured at 6 hours post culture using PCR. The secretion of cytokines/chemokines in the supernatants was quantified using Luminex. CD83, CD80, CD86 and CD69 expression was measured by flow cytometry at 24 hour post culture.
Human B cells were purified and cultured for 6 hours or 24 hours either with medium only, with CpG-C (at 0.15 μM) alone or with a combination of CpG-C and CXCL4 (at 10 μg/ml). IL-6 gene levels was measured at 6 hour post culture by PCR and CD83, CD80, CD86 and CD69 expression was measured by flow cytometry at 24 hour post culture.
Purified B cells from HDs were cultured in media alone (control), with either a CpG TLR9 agonist (0.15 μM) or with CpG and either CXCL4, CXCL10, CXCL9, CXCL4, CXCL7 or CXCL12 (all at 10 μg/ml). IL-6 was quantified in the supernatants by ELISA.
Purified B cells from HDs were cultured in media alone (control), with either a CpG TLR9 agonist (0.25 μM) or with CpG and CXCL4 or CXCL10 (10 μg/ml) alone or in the presence of the CXCR3 inhibitor AMG487 at 0, 0.1, 1 or 10 μM for 6 hours or 24 hours. IL-6 was quantified by ELISA at 24 hours and IL-6 and TNF gene expression levels were quantified by q-PCR at 6 hours and CD83, CD80, CD86 and CD69 expression was measured by flow cytometry at 24 hours post culture.

[5] = test system: pDCs of HDs; test: TLR gene expression in purified pDCs from HDs cultured with cytokines or chemokines (qPCR); assay type: cell-based, human; settings: 24 hours; for induction of TLR8 expression on pDCs of HDs: purified pDCs from HDs, IFN-α and IFN-γ 10 ng/ml, IL-12 100 ng/ml, IL-6 5 ng/ml, IL-10 10 ng/ml, TNF 1 ng/ml, TGF-β 10 ng/ml
Method: as §1
PCR reactions were performed as described previously with 10 ng of cDNA (Barrat et al. 2005). In brief, RNA was extracted from cells using the Qiagen RNeasy Mini Kit. Quantity of RNA was measured by Nanodrop and high-capacity cDNA Reverse Transcription kit was used to generate 20-50 ng cDNA. Gene expression levels were calculated based on relative threshold cycle (Ct) values. This was done using the formula Relative Ct=100×1.8 (HSK-GENE), where HSK is the mean CT of duplicate housekeeping gene runs (we used Ubiquitin), GENE is the mean CT of duplicate runs of the gene of interest, and 100 is arbitrarily chosen as a factor to bring all values above 0.
In particular, CXCL4 or IP-10 (two CXCR3B agonists) (10 μg/ml each) had no impact on TLR8 nor TLR7 and TLR9 expression levels in pDCs (FIG. 2C).

dependence of IFN-α superinduction on chemokine receptors [2]: independent of their chemokine receptors
Molecule: CCL5: small chemokine belonging to the CC chemokine family
IFN-α secretion by pDCs, chemokine used alone [1]: no effect
TLR9-induced response (IFN-α secretion) by pDCs [2]: superinduce
IFN-α production in absence of the pDCs (PBMC-ΔpDCs versus total PBMCs) [3]: dramatic decrease

dependence of IFN-α superinduction on chemokine receptors [2]: independent of their chemokine receptors
Molecule: CXCL10: small chemokine belonging to the CXC chemokine family and a ligand for the receptor CXCR3
effect of inhibition of CXCR3 on the chemokine's inhibition of TLR9 in B cells ([4]; CXCR3 inhibitor AMG487 0.1, 1 or 10 μM, CpG 0.25 μM, 6 or 24 hours): no effect
activation of B cells via TLR9 as shown by the production of IL-6 [4]: inhibited
IFN-α secretion by pDCs, chemokine used alone [1]: no effect
IFNα production from TLR9 in pDCs from HDs [2]: potentiated
TLR9-induced response (IFN-α secretion) by pDCs [2]: superinduce
IFN-α production in absence of the pDCs (PBMC-ΔpDCs versus total PBMCs) [3]: dramatic decrease
TLR8, TLR7 and TLR9 expression levels in pDCs ([5]; 10 μg/ml each, pDCs from HDs): no impact

dependence of IFN-α superinduction on chemokine receptors [2]: independent of their chemokine receptors
Molecule: CXCL12: stromal cell-derived factor-1, small chemokine belonging to the CXC chemokine family
activation of B cells via TLR9 as shown by the production of IL-6 [4]: inhibited
IFN-α secretion by pDCs, chemokine used alone [1]: no effect
IFNα production from TLR9 in pDCs from HDs [2]: potentiated
TLR9-induced response (IFN-α secretion) by pDCs [2]: superinduce
IFN-α production in absence of the pDCs (PBMC-ΔpDCs versus total PBMCs) [3]: dramatic decrease

Molecule: IFN-α
induction of TLR8 expression on pDCs of HDs [5]: none of these molecules could induce TLR8

Molecule: IL-6: cytokine added to pDC culture at 5 ng/ml
induction of TLR8 expression on pDCs of HDs [5]: none of these molecules could induce TLR8

Molecule: TGF-β
induction of TLR8 expression on pDCs of HDs [5]: none of these molecules could induce TLR8

Molecule: heparin [reference compound]
superinduction of IFN-α by all four chemokines (CXCL4, CXCL10, CXCL12, CCL5) ([2]; heparin 1 U/ml, CpG-activated pDCs): reduced

B1: IL-10: cytokine added to pDC culture at 10 ng/ml (protein, UniProt P22301 19-178, looked up)
Interleukin-10: SPGQGTQSENSCTHFPGNLPNMLRDLRDAFSRVKTFFQMKDQLDNLLLKESLLEDFKGYLGCQALSEMIQFYLEEVMPQAENQDPDIKAHVNSLGENLKTLRLRLRRCHRFLPCENKSKAVEQVKNAFNKLQEKGIYKAMSEFDIFINYIEAYMTMKIRN
induction of TLR8 expression on pDCs of HDs [5]: none of these molecules could induce TLR8

B2: IFN-γ: cytokine added to pDC culture at 10 ng/ml (protein, UniProt P01579 24-161, looked up)
Interferon gamma: QDPYVKEAENLKKYFNAGHSDVADNGTLFLGILKNWKEESDRKIMQSQIVSFYFKLFKNFKDDQSIQKSVETIKEDMNVKFFNSNKKKRDDFEKLTNYSVTDLNVQRKAIHELIQVMAELSPAAKTGKRKRSQMLFRG
induction of TLR8 expression on pDCs of HDs [5]: none of these molecules could induce TLR8

B3: IL-12: cytokine added to pDC culture at 100 ng/ml (protein, UniProt P29459 23-219; P29460 23-328, looked up)
Interleukin-12 subunit alpha: RNLPVATPDPGMFPCLHHSQNLLRAVSNMLQKARQTLEFYPCTSEEIDHEDITKDKTSTVEACLPLELTKNESCLNSRETSFITNGSCLASRKTSFMMALCLSSIYEDLKMYQVEFKTMNAKLLMDPKRQIFLDQNMLAVIDELMQALNFNSETVPQKSSLEEPDFYKTKIKLCILLHAFRIRAVTIDRVMSYLNAS
Interleukin-12 subunit beta: IWELKKDVYVVELDWYPDAPGEMVVLTCDTPEEDGITWTLDQSSEVLGSGKTLTIQVKEFGDAGQYTCHKGGEVLSHSLLLLHKKEDGIWSTDILKDQKEPKNKTFLRCEAKNYSGRFTCWWLTTISTDLTFSVKSSRGSSDPQGVTCGAATLSAERVRGDNKEYEYSVECQEDSACPAAEESLPIEVMVDAVHKLKYENYTSSFFIRDIIKPDPPKNLQLKPLKNSRQVEVSWEYPDTWSTPHSYFSLTFCVQVQGKSKREKKDRVFTDKTSATVICRKNASISVRAQDRYYSSSWSEWASVPCS
induction of TLR8 expression on pDCs of HDs [5]: none of these molecules could induce TLR8

B4: CXCL9: belongs to the CXC chemokine family, also known as MIG (protein, UniProt Q07325 23-125, looked up)
C-X-C motif chemokine 9: TPVVRKGRCSCISTNQGTIHLQSLKDLKQFAPSPSCEKIEIIATLKNGVQTCLNPDSADVKELIKKWEKQVSQKKKQKNGKKHQKKKVLKVRKSQRSRQKKTT
activation of B cells via TLR9 as shown by the production of IL-6 [4]: inhibited
